Source: US20230151025A1, “SUBSTITUTED THIAZOLOPYRIDINES, SALTS THEREOF AND THEIR USE AS HERBICIDALLY ACTIVE SUBSTANCES” (Bayer Aktiengesellschaft, priority 2020, published 2023)

Key:
Type in all cases: in vivo
[1] = tested on: Digitaria sanguinalis (DIGSA); assay: Herbicidal pre-emergence action (C), 320 g/ha; conditions: ca. 3 weeks
Procedure, shortened: (§1)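 Weed and crop seeds sown in sandy loam; WP or EC formulations applied pre-emergence to the soil surface as aqueous suspension/emulsion with 0.5% additive at 600 l water/ha. Greenhouse-grown under optimum conditions; damage visually scored after ca. 3 weeks versus untreated controls (0% = as control, 100% = plants dead).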

Viola tricolor (VIOTR) = assay: Herbicidal pre-emergence action (C), 320 g/ha; conditions: ca. 3 weeks
Procedure, shortened: (§2)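 Pre-emergence greenhouse test: visual damage rating at about 3 weeks relative to untreated plants, 100% meaning death and 0% no effect. Compounds, as wettable powders or emulsifiable concentrates with 0.5% additive, were applied at 320 g/ha (600 l water/ha) onto soil covering seeds sown in sandy loam.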

[2] = tested on: Polygonum convolvulus (POLCO); assay: Herbicidal pre-emergence action (C), 320 g/ha; conditions: ca. 3 weeks
Procedure, shortened: as §2

[3] = tested on: Matricaria inodora (MATIN); assay: Herbicidal pre-emergence action (A), 1280 g/ha; conditions: visual grading after ca. 3 weeks vs untreated controls
Procedure, shortened: (§3)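 Pre-emergence greenhouse test: seeds sown in sandy loam pots, WP or EC formulations sprayed onto covering soil as aqueous suspension/emulsion with 0.5% additive at 600 l water/ha. Damage graded visually after ca. 3 weeks versus untreated controls, 0% = as control, 100% = plants dead.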

[4] = tested on: Amaranthus retroflexus (AMARE); assay: Herbicidal pre-emergence action (A), 1280 g/ha; conditions: visual grading after ca. 3 weeks vs untreated controls
Procedure, shortened: as §3

[5] = tested on: Alopecurus myosuroides (ALOMY); assay: Herbicidal pre-emergence action (A), 1280 g/ha; conditions: visual grading after ca. 3 weeks vs untreated controls, 100% = plants have died off, 0% = as control plants
Procedure, shortened: as §3

Poa annua (POAAN) = assay: Herbicidal pre-emergence action (A), 1280 g/ha; conditions: visual grading after ca. 3 weeks vs untreated controls, 100% = plants have died off, 0% = as control plants
Procedure, shortened: as §3

Lolium rigidum (LOLRI) = assay: Herbicidal pre-emergence action (A), 1280 g/ha; conditions: visual grading after ca. 3 weeks vs untreated controls, 100% = plants have died off, 0% = as control plants
Procedure, shortened: as §3

[6] = tested on: Digitaria sanguinalis (DIGSA); assay: Herbicidal pre-emergence action (A), 1280 g/ha; conditions: visual grading after ca. 3 weeks vs untreated controls, 100% = plants have died off, 0% = as control plants
Procedure, shortened: as §3

[7] = tested on: Echinochloa crus-galli (ECHCG); assay: Herbicidal pre-emergence action (A), 1280 g/ha; conditions: visual grading after ca. 3 weeks vs untreated controls, 100% = plants have died off, 0% = as control plants
Procedure, shortened: as §3

Stellaria media (STEME) = assay: Herbicidal pre-emergence action (A), 1280 g/ha; conditions: visual grading after ca. 3 weeks vs untreated controls
Procedure, shortened: as §3

[8] = tested on: Kochia scoparia (KCHSC; Bassia scoparia); assay: Herbicidal pre-emergence action (A), 1280 g/ha; conditions: visual grading after ca. 3 weeks vs untreated controls
Procedure, shortened: as §3

Setaria viridis (SETVI) [9] = assay: Herbicidal pre-emergence action (A), 1280 g/ha; conditions: visual grading after ca. 3 weeks vs untreated controls
Procedure, shortened: as §3

Veronica persica (VERPE) = assay: Herbicidal pre-emergence action (A), 1280 g/ha; conditions: visual grading after ca. 3 weeks vs untreated controls
Procedure, shortened: as §3

Setaria viridis (SETVI) [10] = assay: Herbicidal post-emergence action (D), 320 g/ha; conditions: ca. 3 weeks
Procedure, shortened: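 Post-emergence greenhouse spray of WP or EC formulations plus 0.5% additive at 600 l water/ha onto single-leaf-stage plants, 2–3 weeks after sowing in sandy loam. About 3 weeks later, effect was rated visually against untreated controls as % herbicidal effect, where 0% means like control and 100% means plants dead.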

Avena fatua = assay: Herbicidal pre-emergence action (C), 320 g/ha; conditions: ca. 3 weeks
Procedure, shortened: as §1

[11] = tested on: Matricaria inodora (MATIN); assay: Herbicidal pre-emergence action (C), 320 g/ha; conditions: ca. 3 weeks
Procedure, shortened: as §2

[12] = tested on: Abutilon theophrasti (ABUTH); assay: Herbicidal pre-emergence action (C), 320 g/ha; conditions: ca. 3 weeks
Procedure, shortened: as §2

[13] = tested on: Abutilon theophrasti (ABUTH); assay: Herbicidal pre-emergence action (A), 1280 g/ha; conditions: visual grading after ca. 3 weeks vs untreated controls, 100% = plants have died off, 0% = as control plants
Procedure, shortened: as §3

[14] = tested on: Matricaria inodora (MATIN); assay: Herbicidal post-emergence action (B), 1280 g/ha; conditions: rated visually after about 3 weeks vs untreated controls
Procedure, shortened: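 Post-emergence greenhouse test: weeds in sandy loam treated at the one-leaf stage, 2 to 3 weeks after sowing, with WP or EC formulations plus 0.5% additive at 600 l/ha water. Visual activity versus untreated controls after about 3 weeks (100% = dead, 0% = like control).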

Row | SMILES | herbicidal effect DIGSA [1] [%] | herbicidal effect VIOTR (Viola tricolor (VIOTR)) [%] | herbicidal effect POLCO [2] [%] | herbicidal effect MATIN [3] [%] | herbicidal effect AMARE [4] [%] | ALOMY, herbicidal effect in percent (%) [5] [%] | POAAN, herbicidal effect in percent (%) (Poa annua (POAAN)) | LOLRI, herbicidal effect in percent (%) (Lolium rigidum (LOLRI)) | DIGSA, herbicidal effect in percent (%) [6] [%] | ECHCG, herbicidal effect in percent (%) [7] [%] | herbicidal effect STEME (Stellaria media (STEME)) [%] | herbicidal effect KCHSC [8] [%] | herbicidal effect SETVI (Setaria viridis (SETVI) [9]) [%] | herbicidal effect VERPE (Veronica persica (VERPE)) [%] | herbicidal effect SETVI (Setaria viridis (SETVI) [10]) [%] | herbicidal effect AVEFA (Avena fatua) [%] | herbicidal effect MATIN [11] [%] | herbicidal effect ABUTH [12] [%] | ABUTH, herbicidal effect in percent (%) [13] [%] | herbicidal activity MATIN [14] [%]
1 | Cc1cc2scnc2nc1-c1cccc(F)c1 [Example I-003, 5-(3-fluorophenyl)-6-methyl-thiazolo[4,5-b]pyridine] | 100 | 80 | 80 | 90 | 90 | 90 | 100 | 100 | 100 | 100 | 90 | 100 | 100 | 90 | 80 |  |  |  |  | 
2 | Fc1ccccc1-c1nc2ncsc2cc1Cl [Example I-017] | 100 |  | 90 | 100 | 100 | 100 | 100 | 100 | 100 | 100 | 100 | 100 | 100 | 90 | 80 | 90 | 90 | 80 | 90 | 
3 | CCc1cc2scnc2nc1-c1cccc(F)c1 [Example I-029] | 100 |  |  | 90 | 100 | 100 | 100 | 100 | 100 | 100 | 100 | 100 | 100 | 90 |  |  |  |  | 90 | 
4 | CCc1cc2scnc2nc1-c1ccc(F)cc1F [Example I-030] | 100 |  | 80 | 100 | 90 | 100 | 100 | 100 | 90 | 100 | 90 | 100 | 100 | 100 |  |  |  |  |  | 
5 | Cc1cc2scnc2nc1-c1ccccc1 [Example I-041] | 100 |  | 90 | 100 | 100 | 100 | 100 | 100 | 100 | 100 | 100 | 100 | 100 | 100 | 90 | 90 | 90 |  | 90 | 100
6 | CCc1cc2scnc2nc1-c1ccccc1C [Example I-093] | 100 |  |  | 100 | 90 | 100 | 100 | 100 | 100 | 90 | 100 | 100 | 100 | 100 |  | 80 | 90 |  | 90 | 100
7 | Fc1ccccc1-c1nc2ncsc2cc1C1CC1 [Example I-102] |  | 80 |  | 100 | 90 | 100 | 100 | 100 | 100 | 100 | 90 | 100 | 100 | 100 | 80 |  |  |  | 90 | 90
8 | Cc1cc2scnc2nc1-c1ccc(F)cc1F [Example I-122] | 100 |  |  | 100 | 100 | 100 | 100 | 100 | 100 | 100 | 100 | 100 | 100 | 100 |  | 100 |  |  | 100 | 
9 | COc1ccccc1-c1nc2ncsc2cc1C [Example I-124] | 100 | 90 |  | 100 | 100 | 100 | 100 | 100 | 100 | 100 | 100 | 100 | 100 | 100 |  |  | 80 |  | 100 | 
10 | Cc1cc2scnc2nc1-c1sccc1C [Example I-143] |  |  |  | 90 | 90 | 100 | 100 | 100 |  | 100 | 90 | 90 | 100 | 100 | 80 | 90 | 90 | 80 | 90 | 100
11 | Fc1ccccc1-c1nc2ncsc2cc1I [Example I-188] |  |  | 80 | 90 |  | 100 | 100 | 100 |  | 100 | 90 | 90 | 100 | 90 | 100 | 100 |  | 80 |  | 90
12 | Cc1cc2scnc2nc1-c1ccsc1C [Example I-194] |  | 90 | 90 | 100 | 100 | 100 | 100 | 100 |  | 100 | 100 | 100 | 100 | 100 | 80 |  | 90 |  |  | 100
